From PMC4335020, “Single Oral Dose Pharmacokinetics of Decursin and Decursinol Angelate in Healthy Adult Men and Women” (PLoS ONE, 2015)
Where two headings read alike, the source gives them in different places.

Assay: Single oral dose human plasma pharmacokinetics of D, DA and DOH after Cogni.Q
Type: in vivo
Conditions: for AUC(0-t) / Cmax / half-life / Tmax: human, plasma
Text: Ten healthy male and 10 female subjects were recruited by public announcement in Amarillo, TX, from January 2013 to April 2013 (see Fig. 1 CONSORT diagram). The sample size for each gender was chosen without power calculation due to the lack of prior knowledge of PK parameter variance in humans. After receiving informed consent verbally and in writing, the health status of each candidate was confirmed by health questionnaire, plasma biochemistry (hepatic and renal functions), complete blood cell count (CBC), and a physical examination by a participating academic physician. Subjects with diabetes, or pregnant, perinatal and breastfeeding women were excluded. For the 48 hours preceding study visit until the final blood draw, all subjects were instructed to avoid taking any prescription or nonprescription drugs, vitamins, and herbal/dietary supplements. Each subject was compensated for participating in the study per TTUHSC IRB approved rate.
Eligible subjects arrived at our clinical facility at 0700 (7:00 am) on the test day after a fast beginning at 2200 (10:00 pm) the previous night. After a brief review of vital signs, the nurse placed an intravenous (IV) line with saline drip in one arm of each subject. A baseline pre-dose (hour 0) blood sample was drawn through the IV line; after that subjects swallowed four Cogni.Q vegicaps with 240 mL of water at hour 0 under direct supervision. Subjects stayed at the clinical facility in their room for the next 12 hours, returning at 24 and 48 hours. Blood was drawn at baseline (hour 0) and at 0.5, 1, 2, 3, 4, 6, 8, 12, 24 and 48 hours after dosing into Vacutainer Blood Collection Tube (Becton-Dickinson, Franklin Lakes, NJ. Product Number: 367874, Sodium heparin was used as anti-coagulant). Water was allowed as desired except for within the first hour after Cogni.Q consumption. All subjects received standardized meals at post-dose hours 4.5 and 9.5 but no food was allowed for at least the first 4 hours post-dose.
Plasma was prepared by centrifuging the heparinized blood at 1000 g for 15 minutes at room temperature. Urine samples (40mL) were collected within time spans of 0–4, 4–8, 8–12 and 12–24 hours (total volume of urine was recorded). All plasma and urine samples were put on dry ice immediately and then stored at -80°C freezer until analysis.
Plasma samples were extracted with a validated solid supported liquid extraction (SLE) method facilitated with a positive pressure manifold (Biotage, Charlotte, NC). Briefly, 100 μL of plasma sample was spiked with 5 μL of 10 ng/μL prednisolone (IS), diluted with 200 μL of LC-MS grade water, mixed and loaded onto ISOLUTE SLE+ 400 μL Array Well cartridges (Biotage, Charlotte, NC). A pulse of minimum positive pressure was applied to facilitate the samples absorption into the cartridges. After the samples were allowed to absorb for 5 min, the compounds were eluted with 2×500 μL tert-butyl methyl ether. The eluent was dried in a Speedvac and the resulting residue was reconstituted in 50 μL of methanol for UHPLC-MS/MS analysis.
Eight-point calibration curves were constructed for D, DA and DOH, at concentrations of 0.1, 0.5, 1, 5, 10, 20, 50 and 100 μg/L for D and DA, and at concentrations of 1, 5, 10, 50, 100, 200, 500 and 1000 μg/L for DOH, respectively. The linear range was 0.1–100 μg/L (0.3–300 nmol/L), 0.1–100 μg/L (0.3–300 nmol/L) and 1–1000 μg/L (4–4000 nmol/L) for D, DA and DOH, respectively. The inter- and intra-assay CV were lower than 6.5% and the accuracy was between 90–105%. Calibration curve was run for each batch of samples analyzed. The mean calibration curve correlation coefficient (r) for D, DA and DOH was 0.999, 0.999 and 0.998, respectively (data from 7–10 calibration curves). In addition, 70% of the plasma samples were extracted and analyzed twice, the data from two replicate analyses were nearly identical and combined for final data analyses and presentation. […]

With CC(C)=CC(=O)O[C@H]1Cc2cc3ccc(=O)oc3cc2OC1(C)C [D, decursin] the AUC(0-t) (oral, 4 Cogni.Q vegicaps, subject S10 (185 lb), read-out: AUC0-48h) was 46.6 nmol·h/L, the Cmax (oral, 4 Cogni.Q vegicaps, subject S10 (185 lb), read-out: Cmax) was 5.7 nM and the half-life (oral, 4 Cogni.Q vegicaps, subject S10 (185 lb), read-out: Terminal t1/2, h (converted)) was 13.4 h. For the same molecule, the Tmax (oral, 4 Cogni.Q vegicaps, subject S10 (185 lb), read-out: Tmax) was 0.5 h, the AUC(0-t) (oral, 4 Cogni.Q vegicaps, subject S11 (178 lb), read-out: AUC0-48h) was 14.7 nmol·h/L and the Cmax (oral, 4 Cogni.Q vegicaps, subject S11 (178 lb), read-out: Cmax) was 2.5 nM. For the same molecule, the half-life (oral, 4 Cogni.Q vegicaps, subject S11 (178 lb), read-out: Terminal t1/2, h (converted)) was 20.2 h, the Tmax (oral, 4 Cogni.Q vegicaps, subject S11 (178 lb), read-out: Tmax) was 1 h and the AUC(0-t) (oral, 4 Cogni.Q vegicaps, subject S12 (169 lb), read-out: AUC0-48h) was 24.8 nmol·h/L. It also gave a Cmax (oral, 4 Cogni.Q vegicaps, subject S12 (169 lb), read-out: Cmax) of 1.3 nM, a half-life (oral, 4 Cogni.Q vegicaps, subject S12 (169 lb), read-out: Terminal t1/2, h (converted)) of 15.7 h and a Tmax (oral, 4 Cogni.Q vegicaps, subject S12 (169 lb), read-out: Tmax) of 2 h. The AUC(0-t) (oral, 4 Cogni.Q vegicaps, subject S13 (192 lb), read-out: AUC0-48h) was 13.5 nmol·h/L, the Cmax (oral, 4 Cogni.Q vegicaps, subject S13 (192 lb), read-out: Cmax) was 1.3 nM and the half-life (oral, 4 Cogni.Q vegicaps, subject S13 (192 lb), read-out: Terminal t1/2, h (converted)) was 25.8 h. It also gave a Tmax (oral, 4 Cogni.Q vegicaps, subject S13 (192 lb), read-out: Tmax) of 0.5 h, an AUC(0-t) (oral, 4 Cogni.Q vegicaps, subject S14 (200 lb), read-out: AUC0-48h) of 21.5 nmol·h/L and a Cmax (oral, 4 Cogni.Q vegicaps, subject S14 (200 lb), read-out: Cmax) of 8.6 nM. The half-life (oral, 4 Cogni.Q vegicaps, subject S14 (200 lb), read-out: Terminal t1/2, h (converted)) was 4.5 h, the Tmax (oral, 4 Cogni.Q vegicaps, subject S14 (200 lb), read-out: Tmax) was 1 h and the AUC(0-t) (oral, 4 Cogni.Q vegicaps, subject S15 (177 lb), read-out: AUC0-48h) was 23.8 nmol·h/L. It also gave a Cmax (oral, 4 Cogni.Q vegicaps, subject S15 (177 lb), read-out: Cmax) of 16.8 nM, a half-life (oral, 4 Cogni.Q vegicaps, subject S15 (177 lb), read-out: Terminal t1/2, h (converted)) of 26.5 h and a Tmax (oral, 4 Cogni.Q vegicaps, subject S15 (177 lb), read-out: Tmax) of 1 h. It also gave a Tmax (oral, 4 Cogni.Q vegicaps, subject S16 (175 lb), read-out: Tmax) of 3 h, an AUC(0-t) (oral, 4 Cogni.Q vegicaps, subject S17 (147 lb), read-out: AUC0-48h) of 53.9 nmol·h/L and a Cmax (oral, 4 Cogni.Q vegicaps, subject S17 (147 lb), read-out: Cmax) of 9.8 nM. For the same molecule, the half-life (oral, 4 Cogni.Q vegicaps, subject S17 (147 lb), read-out: Terminal t1/2, h (converted)) was 22.7 h, the Tmax (oral, 4 Cogni.Q vegicaps, subject S17 (147 lb), read-out: Tmax) was 2 h and the half-life (oral, 4 Cogni.Q vegicaps, subject S18 (180 lb), outlier, excluded from means, read-out: Terminal t1/2, h (converted)) was 138 h. The AUC(0-t) (oral, 4 Cogni.Q vegicaps, subject S18 (180 lb), read-out: AUC0-48h) was 25.8 nmol·h/L, the Cmax (oral, 4 Cogni.Q vegicaps, subject S18 (180 lb), read-out: Cmax) was 1.7 nM and the Tmax (oral, 4 Cogni.Q vegicaps, subject S18 (180 lb), read-out: Tmax) was 4 h. It also gave an AUC(0-t) (oral, 4 Cogni.Q vegicaps, subject S19 (130 lb), read-out: AUC0-48h) of 35.7 nmol·h/L, a Cmax (oral, 4 Cogni.Q vegicaps, subject S19 (130 lb), read-out: Cmax) of 1.7 nM and a half-life (oral, 4 Cogni.Q vegicaps, subject S19 (130 lb), read-out: Terminal t1/2, h (converted)) of 8.5 h. It also gave a Tmax (oral, 4 Cogni.Q vegicaps, subject S19 (130 lb), read-out: Tmax) of 3 h, a half-life (oral, subject S16 (175 lb), outlier, excluded from means, read-out: Terminal t1/2, h (converted)) of 9.4 h and an AUC(0-t) (oral, subject S16 (175 lb), read-out: AUC0-48h) of 22.2 nmol·h/L. For the same molecule, the Cmax (oral, subject S16 (175 lb), read-out: Cmax) was 2.8 nM, the AUC(0-t) (oral, subject S20 (200 lb), read-out: AUC0-48h) was 19.1 nmol·h/L and the Cmax (oral, subject S20 (200 lb), read-out: Cmax) was 1.3 nM. The half-life (oral, subject S20 (200 lb), read-out: Terminal t1/2, h (converted)) was 18.4 h, the Tmax (oral, subject S20 (200 lb), read-out: Tmax) was 2 h and the “conversion of D/DA to DOH” value (humans, from plasma AUC0–48h values) was > 98%. It also gave an AUC(0-t) (male, oral, 4 Cogni.Q vegicaps, Men n=10 (S1 Table), read-out: AUC0-48h, Mean) of 28.5 nmol·h/L, a Cmax (male, oral, 4 Cogni.Q vegicaps, Men n=10 (S1 Table), read-out: Cmax, nM, Mean) of 5.22 nM and a Tmax (male, oral, 4 Cogni.Q vegicaps, Men n=10 (S1 Table), read-out: Tmax, h, Mean) of 1.7 h. It also gave a half-life (male, oral, Men, outliers excluded (S1 Table), read-out: Terminal t1/2, h, Mean (converted)) of 17.7 h, an AUC(0-t) (male, po, Men N = 10, single oral dose Cogni.Q, read-out: AUC0–48h, h.nmol/L Mean (SD)) of 28.5 nmol·h/L and a Cmax (male, po, Men N = 10, single oral dose Cogni.Q, read-out: Cmax, nmol/L, Mean (SD)) of 5.2 nM. The Tmax (male, po, Men N = 10, single oral dose Cogni.Q, read-out: Tmax, h, Mean (SD)) was 1.7 h and the half-life (male, po, Men, outlier subjects excluded, single oral dose Cogni.Q, read-out: T1/2, h, terminal Mean (SD) (converted)) was 17.7 h.
